Measured values: paper PMC6985185 (Breast cancer research and treatment, 2019)
“And” between values parts separate entries of the source, which are not always exact repeats. Identical values can stand only once.

Columns and labels:
breast cancer [1] = settings: 500 vs 250 mg/month, loading regimen 500 mg on d1, d14, d29; cited from earlier work
[2] = test system: TamR (tamoxifen resistant) xenograft tumors; assay: TamR Study 1: growth of tamoxifen-resistant xenograft tumors under fulvestrant; format: in vivo, Nu:J mice
ER = settings: months of treatment with originally approved 250 mg/month regimen; cited from earlier work
[3] = test system: HCC1428 breast cancer xenograft tumors; assay: HCC1428 Study: growth of estrogen dependent xenograft tumors; format: in vivo, Nu:J mice; settings: 25 mg/kg sc qw, 4 weeks; ovariectomized mice receiving oral estradiol
breast cancer [4] = settings: 250 mg monthly; patients that had already progressed during AI treatment; cited from earlier work
[5] = Circulating plasma levels of fulvestrant after a single injection (LC/MS/MS); format: in vivo, Nu:J mice; settings: single injection of 25 or 200 mg/kg; plasma collected 1, 3, 5, or 7 days after administration
estrogen receptor (ER) [6] = target: T1, estrogen receptor (ER) (Homo sapiens, UniProt P03372); assay: Immunoblot of ER levels in HCC1428 tumors; settings: 25 mg/kg sc qw, 4 weeks
T1 sequence (P03372 1-595): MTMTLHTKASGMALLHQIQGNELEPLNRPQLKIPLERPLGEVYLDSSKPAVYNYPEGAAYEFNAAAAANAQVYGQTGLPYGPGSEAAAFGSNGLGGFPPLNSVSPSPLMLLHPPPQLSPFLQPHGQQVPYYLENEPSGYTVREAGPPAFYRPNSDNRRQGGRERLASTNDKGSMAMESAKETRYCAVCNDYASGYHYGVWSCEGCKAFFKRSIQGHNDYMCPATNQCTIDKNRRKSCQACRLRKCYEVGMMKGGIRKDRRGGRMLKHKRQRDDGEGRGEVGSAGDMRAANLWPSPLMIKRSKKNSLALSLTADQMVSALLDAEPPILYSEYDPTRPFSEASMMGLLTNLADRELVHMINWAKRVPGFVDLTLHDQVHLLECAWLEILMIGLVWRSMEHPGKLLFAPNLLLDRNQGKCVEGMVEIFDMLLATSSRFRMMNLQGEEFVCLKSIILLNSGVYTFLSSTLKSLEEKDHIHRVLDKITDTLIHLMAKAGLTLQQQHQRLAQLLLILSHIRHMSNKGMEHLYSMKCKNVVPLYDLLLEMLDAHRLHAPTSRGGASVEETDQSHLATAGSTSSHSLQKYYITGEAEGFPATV

[7] = test system: ER target genes AGR2, AGR3, and KRT13; assay: RT-qPCR of tamoxifen responsive ER target genes in TamR tumors; format: in vivo, Nu:J mice
uterus = assay: Uterine wet weight in LTED tumor bearing mice; format: in vivo, Nu:J mice; settings: ovariectomized LTED tumor bearing mice, after 4 weeks of treatment at the LTED study doses
[8] = Circulating plasma levels of fulvestrant at euthanasia, TamR Study 1 (LC/MS/MS); format: in vivo, Nu:J mice; settings: female, Nu/J, mouse, subcutaneous
estrogen receptor (ER) [9] = target: T1, estrogen receptor (ER); assay: Immunoblot of ER levels in TamR tumors, Study 1; settings: 28 days of treatment
[10] = current clinical protocol; cited from earlier work
[11] = all doses administered (25-200 mg/kg)

SMILES: C[C@]12CC[C@@H]3c4ccc(O)cc4C[C@@H](CCCCCCCCC[S+]([O-])CCCC(F)(F)C(F)(F)F)[C@H]3[C@@H]1CC[C@@H]2O (stereo partly shown) [Fulvestrant, fulvestrant]
- Clinical response to higher dose with loading regimen (breast cancer [1]): improved response rate and increased time to progression
- Inhibition of TamR tumor growth vs vehicle control ([2]; 4 weekly injections of 25, 50, 100, or 200 mg/kg (all doses), no significant differences between doses): significant inhibition of tumor growth
- % tumor growth inhibition of TamR tumors ([2]; fulvestrant 25 mg/kg sc weekly, day 0 of treatment): −1%
- % tumor growth inhibition of TamR tumors ([2]; fulvestrant 25 mg/kg sc weekly, day 2 of treatment): 25%
- % tumor growth inhibition of TamR tumors ([2]; fulvestrant 25 mg/kg sc weekly, day 4 of treatment): 20%
- % tumor growth inhibition of TamR tumors ([2]; fulvestrant 25 mg/kg sc weekly, day 7 of treatment): 21%
- % tumor growth inhibition of TamR tumors ([2]; fulvestrant 25 mg/kg sc weekly, day 9 of treatment): 18%
- % tumor growth inhibition of TamR tumors ([2]; fulvestrant 25 mg/kg sc weekly, day 11 of treatment): 24%
- % tumor growth inhibition of TamR tumors ([2]; fulvestrant 25 mg/kg sc weekly, day 14 of treatment): 33%
- % tumor growth inhibition of TamR tumors ([2]; fulvestrant 25 mg/kg sc weekly, day 16 of treatment): 29%
- % tumor growth inhibition of TamR tumors ([2]; fulvestrant 25 mg/kg sc weekly, day 18 of treatment): 39%
- % tumor growth inhibition of TamR tumors ([2]; fulvestrant 25 mg/kg sc weekly, day 21 of treatment): 44%
- % tumor growth inhibition of TamR tumors ([2]; fulvestrant 25 mg/kg sc weekly, day 23 of treatment): 45%
- % tumor growth inhibition of TamR tumors ([2]; fulvestrant 25 mg/kg sc weekly, day 25 of treatment): 47%
- % tumor growth inhibition of TamR tumors ([2]; fulvestrant 25 mg/kg sc weekly, day 28 of treatment): 47%
- % tumor growth inhibition of TamR tumors ([2]; fulvestrant 50 mg/kg sc weekly, day 0 of treatment): −1%
- % tumor growth inhibition of TamR tumors ([2]; fulvestrant 50 mg/kg sc weekly, day 2 of treatment): 24%
- % tumor growth inhibition of TamR tumors ([2]; fulvestrant 50 mg/kg sc weekly, day 4 of treatment): 20%
- % tumor growth inhibition of TamR tumors ([2]; fulvestrant 50 mg/kg sc weekly, day 7 of treatment): 26%
- % tumor growth inhibition of TamR tumors ([2]; fulvestrant 50 mg/kg sc weekly, day 9 of treatment): 28%
- % tumor growth inhibition of TamR tumors ([2]; fulvestrant 50 mg/kg sc weekly, day 11 of treatment): 31%
- % tumor growth inhibition of TamR tumors ([2]; fulvestrant 50 mg/kg sc weekly, day 14 of treatment): 37%
- % tumor growth inhibition of TamR tumors ([2]; fulvestrant 50 mg/kg sc weekly, day 16 of treatment): 40%
- % tumor growth inhibition of TamR tumors ([2]; fulvestrant 50 mg/kg sc weekly, day 18 of treatment): 44%
- % tumor growth inhibition of TamR tumors ([2]; fulvestrant 50 mg/kg sc weekly, day 21 of treatment): 51%
- % tumor growth inhibition of TamR tumors ([2]; fulvestrant 50 mg/kg sc weekly, day 23 of treatment): 58%
- % tumor growth inhibition of TamR tumors ([2]; fulvestrant 50 mg/kg sc weekly, day 25 of treatment): 59%
- % tumor growth inhibition of TamR tumors ([2]; fulvestrant 50 mg/kg sc weekly, day 28 of treatment): 62%
- % tumor growth inhibition of TamR tumors ([2]; fulvestrant 100 mg/kg sc weekly, day 0 of treatment): −3%
- % tumor growth inhibition of TamR tumors ([2]; fulvestrant 100 mg/kg sc weekly, day 2 of treatment): 23%
- % tumor growth inhibition of TamR tumors ([2]; fulvestrant 100 mg/kg sc weekly, day 4 of treatment): 20%
- % tumor growth inhibition of TamR tumors ([2]; fulvestrant 100 mg/kg sc weekly, day 7 of treatment): 27%
- % tumor growth inhibition of TamR tumors ([2]; fulvestrant 100 mg/kg sc weekly, day 9 of treatment): 16%
- % tumor growth inhibition of TamR tumors ([2]; fulvestrant 100 mg/kg sc weekly, day 11 of treatment): 32%
- % tumor growth inhibition of TamR tumors ([2]; fulvestrant 100 mg/kg sc weekly, day 14 of treatment): 44%
- % tumor growth inhibition of TamR tumors ([2]; fulvestrant 100 mg/kg sc weekly, day 16 of treatment): 36%
- % tumor growth inhibition of TamR tumors ([2]; fulvestrant 100 mg/kg sc weekly, day 18 of treatment): 50%
- % tumor growth inhibition of TamR tumors ([2]; fulvestrant 100 mg/kg sc weekly, day 21 of treatment): 46%
- % tumor growth inhibition of TamR tumors ([2]; fulvestrant 100 mg/kg sc weekly, day 23 of treatment): 53%
- % tumor growth inhibition of TamR tumors ([2]; fulvestrant 100 mg/kg sc weekly, day 25 of treatment): 49%
- % tumor growth inhibition of TamR tumors ([2]; fulvestrant 100 mg/kg sc weekly, day 28 of treatment): 58%
- % tumor growth inhibition of TamR tumors ([2]; fulvestrant 200 mg/kg sc weekly, day 0 of treatment): 2%
- % tumor growth inhibition of TamR tumors ([2]; fulvestrant 200 mg/kg sc weekly, day 2 of treatment): 28%
- % tumor growth inhibition of TamR tumors ([2]; fulvestrant 200 mg/kg sc weekly, day 4 of treatment): 24%
- % tumor growth inhibition of TamR tumors ([2]; fulvestrant 200 mg/kg sc weekly, day 7 of treatment): 24%
- % tumor growth inhibition of TamR tumors ([2]; fulvestrant 200 mg/kg sc weekly, day 9 of treatment): 25%
- % tumor growth inhibition of TamR tumors ([2]; fulvestrant 200 mg/kg sc weekly, day 11 of treatment): 39%
- % tumor growth inhibition of TamR tumors ([2]; fulvestrant 200 mg/kg sc weekly, day 14 of treatment): 47%
- % tumor growth inhibition of TamR tumors ([2]; fulvestrant 200 mg/kg sc weekly, day 16 of treatment): 48%
- % tumor growth inhibition of TamR tumors ([2]; fulvestrant 200 mg/kg sc weekly, day 18 of treatment): 53%
- % tumor growth inhibition of TamR tumors ([2]; fulvestrant 200 mg/kg sc weekly, day 21 of treatment): 61%
- % tumor growth inhibition of TamR tumors ([2]; fulvestrant 200 mg/kg sc weekly, day 23 of treatment): 66%
- % tumor growth inhibition of TamR tumors ([2]; fulvestrant 200 mg/kg sc weekly, day 25 of treatment): 67%
- % tumor growth inhibition of TamR tumors ([2]; fulvestrant 200 mg/kg sc weekly, day 28 of treatment): 74%
- Patients exhibiting intratumoral [(18)F]fluoroestradiol (FES) binding during follow up PET scans (ER): 30%
- Effect on HCC1428 xenograft tumor growth [3]: Tumor stasis
- Response rate in the EFFECT trial (breast cancer [4]): 7.4%
- Time of highest plasma level after single injection [5]: highest levels detected one day after administration
- ER expression in HCC1428 tumors (western blotting) (estrogen receptor (ER) [6]): modest but significant downregulation of ER expression
- mRNA expression of anterior gradient protein 3 (AGR3) in TamR tumors [7, 11]: dramatic downregulation
- mRNA expression of keratin 13 (KRT13) in TamR tumors [7, 11]: dramatic downregulation
- mRNA expression of AGR2 in TamR tumors ([7]; only for doses that resulted in quantitative downregulation of ER protein): modest reduction in AGR2 expression
- Uterine wet weight (measure of uterine stimulation) (uterus): non-significant trend toward reduced uterine weight
- concentration at 7 days after final dose ([8]; 25 mg/kg): 34.6 ng/mL and 57 nM
- concentration at 7 days after final dose ([8]; 50 mg/kg): 64.9 ng/mL and 107 nM
- concentration at 7 days after final dose ([8]; 100 mg/kg): 95.6 ng/mL and 157 nM
- concentration at 7 days after final dose ([8]; 200 mg/kg): 207 ng/mL and 340 nM
- ER downregulation in TamR tumors (immunoblot) (estrogen receptor (ER) [9]; 25 mg/kg dose): did not result in significant ER downregulation
- ER downregulation in TamR tumors (immunoblot) (estrogen receptor (ER) [9]; 50, 100, and 200 mg/kg doses): Significant (p < 0.001) downregulation of ER
- Cmax observed per current protocol in patients [10]: ~28 ng/mL
